Source: patent US20200345694A1, “ANTIAGING COMPOSITION COMPRISING CYTOCHALASIN D OR SAG, AND METHOD FOR SCREENING ANTIAGING SUBSTANCE” (AMOREPACIFIC CORPORATION, priority 2017, published 2020)

How the values were obtained:
[1] = test system: normal human dermal fibroblasts; experiment: Procollagen I secreted to the medium of fibroblasts, measured by western blotting; format: cell-based; details: 48 hours, vs control group (FIG. 2)
Procedure: It was investigated whether the increase in primary cilia leads to increased secretion of procollagen to the medium.
Specifically, normal human dermal fibroblasts were cultured in DMEM supplemented with 10% FBS (fetal bovine serum), 100 mg/L streptomycin and 100,000 U/L penicillin. The cultured fibroblasts seeded onto a 6-well plate with 1×10^5 cells per well and 1.5 mL of a medium containing 0.2 μM cytochalasin D or 2 pM SAG as a test substance was added 24 hours later. This leads to increased expression of primary cilia as in Test Example 1. 48 hours after the treatment with the test substance, the medium was collected and the amount of procollagen I in the medium was measured by western blotting. The procollagen I antibody was purchased from Developmental Studies Hybridoma Bank and diluted in a PBS buffer containing 0.1% Trito™ X-100 and 5% normal goat serum to 1/10000 based on weight. As a control group (loading control), electrophoresed polyacrylamide gel was stained with 0.05% Coomassie blue and then observed. The experiment was repeated at least twice for independent test groups.

[2] = test system: Normal human neonatal dermal fibroblasts; experiment: Expression of primary cilia in skin cells (immunofluorescence staining with ARL13B and acetylated tubulin antibodies, confocal microscope); format: cell-based; details: 48 hours, vs control group (FIG. 1)
Procedure: Normal human neonatal dermal fibroblasts were plated in a Lab-Tex™ 2-well glass chamber slide (Thermo Scientific, Waltham, Mass., USA) with 0.5×10^5 cells per well. 24 hours later, the cells were treated with a test substance (1.5 mL of 0.2 μM cytochalasin D, or 1.5 mL of 2 μM SAG). 48 hours, the cells were immobilized and primary cilia were stained.
The primary cilia were stained with ARL13B (Proteintech) and a-acetylated tubulin (Sigma-Aldrich) antibodies. The cells were incubated overnight at 4° C. with ARL13B antibody diluted to 1/500 based on weight and a-acetylated tubulin antibody diluted to 1/1000 based on weight in a PBS buffer supplemented with 0.1% Triton™ X-100 and 5% normal goat serum. Then, the cells were treated at room temperature for 2 hours with Alexa Fluor 594 goat anti-mouse IgG and 488 goat anti-rabbit IgG (Invitrogen) as secondary antibodies. The nuclei were stained with DAPI and observed under a confocal microscope. The experiment was repeated at least twice for independent test groups.

| Structure (SMILES) | amount of procollagen in fibroblasts (procollagen I in the medium) ([1]; 2 pM SAG (so in the source)) | primary cilia of fibroblasts ([2]; 2 μM SAG) | amount of procollagen in fibroblasts (procollagen I in the medium) ([1]; 0.2 μM cytochalasin D) | primary cilia of fibroblasts ([2]; 0.2 μM cytochalasin D) |
| --- | --- | --- | --- | --- |
| CN[C@H]1CC[C@H](N(Cc2cccc(-c3ccncc3)c2)C(=O)c2sc3ccccc3c2Cl)CC1 [SAG, 3-chloro-N-[trans-4-(methylamino)cyclohexyl]-N-[[3-(4-pyridinyl)phenyl]methyl]benzo[b]thiophene-2-carboxamide] | increased | increased |  |  |
| C=C1C(O)[C@@H]2/C=C/C[C@H](C)C(=O)[C@](C)(O)/C=C/[C@H](OC(C)=O)[C@]23C(=O)N[C@@H](Cc2ccccc2)[C@@H]3[C@@H]1C (stereo partly shown) [cytochalasin D] |  |  | increased | increased |
